# From ChEMBL document CHEMBL1151290, “Chemical constituents of Brazilian propolis and their cytotoxic activities” (1998)
# Legend:
# HT-1080 = assay: Cytotoxicity against human HT1080 cells after 24 hrs by MTT assay; format: functional; details: HT-1080, 24 h, read-out: ED50 (the source's name)
# [1] = Cytotoxicity against mouse 26-L5 cells after 24 hrs by MTT assay; format: functional; details: read-out: ED50 (the source's name)
SMILES,EC50 (HT-1080) [µg/mL],EC50 [1] [µg/mL]
C=C[C@](C)(O)CC[C@H]1C(=C)CC[C@@H]2[C@]1(C)CCC[C@]2(C)C(=O)O [CUPRESSICACID],94.9,> 100
COc1cc([C@H]2Oc3c(OC)cc(/C=C/COC(C)=O)cc3[C@@H]2COC(C)=O)ccc1O [DIMERICCONIFERYLACETATE],38.9,39.9
COc1cc(/C=C/C=O)ccc1O [CONIFERYL ALDEHYDE],4.05,10.4
C=C(CO)[C@H]1Cc2cc(C(C)=O)c(O)cc2O1,45.5,57.1
COc1ccc(-c2oc3cc(O)c(OC)c(O)c3c(=O)c2O)cc1 [BETULETOL],5.83,4.95
COc1ccc(-c2oc3cc(O)cc(O)c3c(=O)c2O)cc1 [KAEMPFERIDE],2.91,5.95
C=C1CC[C@@H]2[C@](C)(CCC[C@]2(C)C(=O)O)[C@H]1CC/C(C)=C/COC(C)=O,70.1,73.3
C=C(C)[C@H]1Cc2cc(C(C)=O)ccc2O1 [TREMETONE],57.4,58.1
C=C1CC[C@@H]2[C@](C)(CCC[C@]2(C)C(=O)O)[C@H]1CC/C(C)=C/C(=O)OC,72.8,> 100
COc1ccc([C@H]2Oc3cc(O)cc(O)c3C(=O)[C@@H]2O)cc1,27,71
C=C1CC[C@@H]2[C@](C)(CCC[C@]2(C)C(=O)O)[C@H]1CC/C(C)=C/CO [ISOCUPRESSIC ACID],72.9,63.5
COc1ccc(-c2oc3cc(O)cc(O)c3c(=O)c2OC)cc1 [ERMANIN],2.3,7.64
CC(C)=CCc1cc(/C=C/C(=O)O)cc(CC=C(C)C)c1O [ARTEPILLIN],45.5,59.3
CC(C)=CCc1cc(/C=C/C(=O)O)ccc1OC(=O)CCc1ccccc1 [BACCHARIN],25.9,77.9
COc1cccc2c1C(=O)c1c(O)c3c(c(O)c1C2=O)C[C@@](O)(C(=O)CO)C[C@@H]3O[C@H]1C[C@H](N)[C@H](O)[C@H](C)O1.Cl [DOXORUBICIN HYDROCHLORIDE],0.034,0.015
C=C1CC[C@@H]2[C@](C)(CCC[C@]2(C)C(=O)O)[C@H]1CC/C(C)=C/C(=O)O [AGATHIC ACID],75.4,95.9
CC(C)=CCc1cc(/C=C/C(=O)O)cc2c1OC(C)(C)C=C2 [CULIFOLIN],46.9,50.2
CC(C)=CCc1cc(/C=C/C(=O)O)cc2c1OC(C)(C)C(O)C2 (stereo unspecified),71.5,77.1
